Like-named read-outs stand apart in the source and are kept apart here.
Tests used:
[1] = Partition of icariside I between ethyl acetate and water; assay type: physicochemical; details: hydrolyzate adjusted to pH 7.0
Description: The ethanolic hydrolyzate (25 mL) prepared in Example 1 was mixed with 62.5 mL of de-ionized water and the pH was adjusted to 7.0 using 50% (w/w) sodium hydroxide solution. The resulting mixture was extracted with three 25 mL portions of ethyl acetate and the combined ethyl acetate extracts were back extracted with 150 mL of water.

[2] = target: phosphodiesterase type V (PDE-5) (Homo sapiens, UniProt O76074); assay: PDE-5 inhibition assay; assay type: biochemical

Row | SMILES | partition coefficient between ethyl acetate and water [1] | PDE-5 inhibition (in words) [2] | IC50 ([2]; read-out: PDE-5 IC50 (converted)) | PDE-5 IC50 [2] | IC50 [2] | PDE-5 inhibition (in words) ([2]; listed as anhydroicaritin)
1 | COc1ccc(-c2oc3c(CC=C(C)C)c(O[C@@H]4O[C@H](CO)[C@@H](O)[C@H](O)[C@H]4O)cc(O)c3c(=O)c2O)cc1 [Entry 10, icariside I] | 16 | strong PDE-5 inhibitor | 622 nM |  |  | 
2 | COc1ccc(-c2oc3c(CCC(C)(C)O)c(O[C@@H]4O[C@H](CO)[C@@H](O)[C@H](O)[C@H]4O)cc(O)c3c(=O)c2O)cc1 [Entry 12, icariside I hydrate] |  | essentially inactive |  | 21.50 μg/mL |  | 
3 | COc1ccc(-c2oc3c(CC=C(C)C)c(O)cc(O)c3c(=O)c2O)cc1 [Entry 11, anhydroicaritin] |  | significant inhibition of PDE-5 |  |  | 4070 nM | strong PDE-5 inhibitor

Reference: patent publication US6399579B1, “Compositions comprising icariside I and anhydroicaritin and methods for making the same” (Hauser, Inc., priority 2000, dated 2002)
